Data on 24 compounds can be found in patent US20160176867A1, “MODIFIED BET-PROTEIN-INHIBITING DIHYDROQUINOXALINONES AND DIHYDROPYRIDOPYRAZINONES” (BAYER PHARMA AKTIENGESELLSCHAFT, priority 2013, published 2016).

A word on the IC50: it is the concentration needed to halve the response being measured.

This assay concerns the target T1, BRD4 bromo domain 2 [BRD4(2)] (Homo sapiens, UniProt O60885).
T1 construct: N-terminally His6-tagged BRD4(2) (amino acids 357-445); made in house; host or cells: E. coli
The assay is described as follows: BRD4/acetylated peptide H4 binding assay (TR-FRET), BRD4 bromo domain 2. Particulars: inhibition of BRD4(2)/Ac-H4 peptide interaction. The method, boiled down: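 IC50 comes from a 4-parameter fit over 0.1 nM–20 μM in duplicate, normalised to DMSO and no-protein controls. TR-FRET (Eu-streptavidin/anti-His-XL665) tracks His-tagged BRD4(2) 357-445 at 100 nM binding Ac-H4 peptide in HEPES pH 7.5 buffer. Incubation was 1 h at 22 °C, then at 4 °C ≥3 h up to overnight.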

`C[C@@H]1C(=O)N(C)c2ccc(Nc3cccc(S(=O)(=O)N4CC(F)(F)C4)c3)nc2N1C1CCN(C)CC1` [Example 29, (3R)-6-({3-[(3,3-Difluoroazetidin-1-yl)sulphonyl]phenyl}amino)-1,3-dimethyl-4-(1-methylpiperidin-4-yl)-3,4-dihydropyrido[2,3-b]pyrazin-2(1H)-one]: the IC50 was found to be 64 nM.

`COc1ccc(S(=O)(=O)N2CC3(COC3)C2)cc1Nc1ccc2c(n1)N(C1CCOCC1)[C@H](C)C(=O)N2C` [Example 30, (3R)-6-{[2-Methoxy-5-(2-oxa-6-azaspiro[3.3]hept-6-ylsulphonyl)phenyl]amino}-1,3-dimethyl-4-(tetrahydro-2H-pyran-4-yl)-3,4-dihydropyrido[2,3-b]pyrazin-2(1H)-one]: the IC50 amounted to 58 nM.

As for `C[C@@H]1C(=O)N(C)c2ccc(Nc3cccc(S(=O)(=O)NC4CCN(C)CC4)c3)nc2N1Cc1ccccc1` [Example 33, 3-{[(3R)-4-benzyl-1,3-dimethyl-2-oxo-1,2,3,4-tetrahydropyrido[2,3-b]pyrazin-6-yl]amino}-N-(1-methylpiperidin-4-yl)benzenesulphonamide], the IC50 is 76 nM.

`CC(C)N1c2nc(Nc3cccc(S(=O)(=O)N[C@H]4CC[C@H](N5CCN(CC6CC6)CC5)CC4)c3)ccc2N(C)C(=O)[C@H]1C` [Example 34, N-{trans-4-[4-(cyclopropylmethyl)piperazin-1-yl]cyclohexyl}-3-{[(3R)-4-isopropyl-1,3-dimethyl-2-oxo-1,2,3,4-tetrahydropyrido[2,3-b]pyrazin-6-yl]amino}-benzenesulphonamide]: the IC50 was determined as 125 nM.

The compound `C[C@@H]1C(=O)N(C)c2ccc(Nc3cccc(S(=O)(=O)N[C@H]4CC[C@H](N5CCN(CC6CC6)CC5)CC4)c3)nc2N1C1CCOCC1` [Example 35, N-{trans-4-[4-(cyclopropylmethyl)-piperazin-1-yl]cyclohexyl}-3-{[(3R)-1,3-dimethyl-2-oxo-4-(tetrahydro-2H-pyran-4-yl)-1,2,3,4-tetrahydropyrido[2,3-b]pyrazin-6-yl]amino}-benzenesulphonamide] gave an IC50 of 69 nM.

`C[C@@H]1C(=O)N(C)c2ccc(Nc3cccc(S(=O)(=O)N4CCN(CC(F)(F)F)CC4)c3)nc2N1C1CCOCC1` [Example 37, (3R)-1,3-dimethyl-4-(tetrahydro-2H-pyran-4-yl)-6-[(3-{[4-(2,2,2-trifluoroethyl)piperazin-1-yl]sulphonyl}phenyl)-amino]-3,4-dihydropyrido-[2,3-b]pyrazin-2(1H)-one] showed a half-inhibitory concentration (IC50) of 16 nM.

Regarding `C[C@@H]1C(=O)N(C)c2ccc(Nc3cccc(S(=O)(=O)N[C@H]4CC[C@H](N5CCN(CC6CC6)CC5)CC4)c3)nc2N1Cc1ccccc1` [Example 38, 3-{[(3R)-4-benzyl-1,3-dimethyl-2-oxo-1,2,3,4-tetrahydropyrido[2,3-b]pyrazin-6-yl]amino}-N-{trans-4-[4-(cyclopropyl-methyl)piperazin-1-yl]cyclohexyl}-benzenesulphonamide], the IC50 stood at 48 nM.

On to `CNS(=O)(=O)c1cccc(Nc2ccc3c(n2)N(C2CCOCC2)[C@H](C)C(=O)N3C)c1` [Example 39, 3-{[(3R)-1,3-dimethyl-2-oxo-4-(tetrahydro-2H-pyran-4-yl)-1,2,3,4-tetrahydropyrido[2,3-b]pyrazin-6-yl]amino}-N-methylbenzenesulphon-amide], for which the IC50 worked out at 135 nM.

For the compound `COc1ccc(S(=O)(=O)N2CCN(C)CC2)cc1Nc1ccc2c(n1)N(C1CCOCC1)[C@H](C)C(=O)N2C` [Example 40, (3R)-6-({2-methoxy-5-[(4-methylpiperazin-1-yl)sulphonyl]phenyl}-amino)-1,3-dimethyl-4-(tetrahydro-2H-pyran-4-yl)-3,4-dihydropyrido[2,3-b]pyrazin-2(1H)-one], the 50% inhibitory concentration (IC50) came to 52 nM.

Consider `C[C@@H]1C(=O)N(C)c2ccc(Nc3cccc(S(=O)(=O)N(C)C)c3)nc2N1C1CCN(C)CC1` [Example 41, 3-{[(3R)-1,3-dimethyl-4-(1-methylpiperidin-4-yl)-2-oxo-1,2,3,4-tetrahydropyrido[2,3-b]pyrazin-6-yl]amino}-N,N-dimethylbenzene-sulphonamide], for which the IC50 was 43 nM.

In turn, `CC(C)N1c2nc(Nc3cccc(S(=O)(=O)N4CCN(C)CC4)c3)ccc2N(C)C(=O)[C@H]1C` [Example 43, (3R)-4-isopropyl-1,3-dimethyl-6-({3-[(4-methylpiperazin-1-yl)sulphonyl]phenyl}-amino)-3,4-dihydropyrido-[2,3-b]pyrazin-2(1H)-one] gave an IC50 of 96 nM.

In turn, `C[C@@H]1C(=O)N(C)c2ccc(Nc3cccc(S(=O)(=O)NCC4CCN(C)CC4)c3)nc2N1C1CCOCC1` [Example 44, 3-{[(3R)-1,3-dimethyl-2-oxo-4-(tetrahydro-2H-pyran-4-yl)-1,2,3,4-tetrahydropyrido[2,3-b]pyrazin-6-yl]amino}-N-[(1-methylpiperidin-4-yl)methyl]benzene-sulphonamide] gave an IC50 of 88 nM.

Compound `CC(C)CN1c2nc(Nc3cccc(S(=O)(=O)N[C@H]4CC[C@H](N5CCN(CC6CC6)CC5)CC4)c3)ccc2N(C)C(=O)[C@H]1C` [Example 45, N-{trans-4-[4-(cyclopropylmethyl)-piperazin-1-yl]cyclohexyl}-3-{[(3R)-4-isobulyl-1,3-dimethyl-2-oxo-1,2,3,4-tetrahydropyrido[2,3-b]pyrazin-6-yl]amino}-benzenesulphonamide] yielded an IC50 of 148 nM.

Compound `COc1ccc(S(=O)(=O)N2CCN(C)CC2)cc1Nc1ccc2c(n1)N(C1CCN(C)CC1)[C@H](C)C(=O)N2C` [Example 46, (3R)-6-({2-methoxy-5-[(4-methylpiperazin-1-yl)sulphonyl]phenyl}-amino)-1,3-dimethyl-4-(1-methylpiperidin-4-yl)-3,4-dihydropyrido[2,3-b]pyrazin-2(1H)-one] showed an IC50 of 69 nM.

The compound `C[C@@H]1C(=O)N(C)c2ccc(Nc3cccc(S(=O)(=O)N4CCOCC4)c3)nc2N1C1CCN(C)CC1` [Example 47, (3R)-1,3-dimethyl-4-(1-methylpiperidin-4-yl)-6-{[3-(morpholin-4-ylsulphonyl)phenyl]-amino}-3-4-dihydropyrido-[2,3-b]pyrazin-2(1H)-one] gave an IC50 of 59 nM.

The compound `C[C@@H]1C(=O)N(C)c2ccc(Nc3cccc(S(=O)(=O)NC4CCN(C)CC4)c3)nc2N1C1CCCCCC1` [Example 48, 3-{[(3R)-4-cycloheptyl-1,3-dimethyl-2-oxo-1,2,3,4-tetrahydropyrido-[2,3-b]pyrazin-6-yl]amino}-N-(1-methylpiperidin-4-yl)benzenesulphonamide] displayed an IC50 of 101 nM.

The compound `C[C@@H]1C(=O)N(C)c2ccc(Nc3cccc(S(=O)(=O)N4CCN(C)CC4)c3)nc2N1C1CCN(C)CC1` [Example 50, (3R)-1,3-dimethyl-6-({3-[(4-methylpiperazin-1-yl)sulphonyl]phenyl}-amino)-4-(1-methyl-piperidin-4-yl)-3,4-dihydropyrido[2,3-b]pyrazin-2(1H)-one] returned an IC50 of 121 nM.

`CC(C)N1c2nc(Nc3cccc(S(=O)(=O)NC4CCN(C)CC4)c3)ccc2N(C)C(=O)[C@H]1C` [Example 51, 3-{[(3R)-4-isopropyl-1,3-dimethyl-2-oxo-1,2,3,4-tetrahydropyrido[2,3-b]pyrazin-6-yl]amino}-N-(1-methylpiperidin-4-yl)benzenesulphonamide] gave an IC50 of 99 nM.

Compound `C[C@@H]1C(=O)N(C)c2ccc(Nc3cccc(S(=O)(=O)N[C@H]4CC[C@H](N5CCN(CC6CC6)CC5)CC4)c3)nc2N1C1CCN(C(=O)OC(C)(C)C)CC1` [Example 52, tert-butyl 4-[(3R)-6-{[3-({trans-4-[4-(cyclo-propylmethyl)piperazin-1-yl]cyclohexyl}-sulphamoyl)phenyl]amino}-1,3-dimethyl-2-oxo-2,3-dihydropyrido[2,3-b]pyrazin-4(1H)-yl]piperidine-1-carboxylate] displayed an IC50 of 86 nM.

Compound `C[C@@H]1C(=O)N(C)c2ccc(N(C)c3cccc(S(=O)(=O)N(C)C)c3)nc2N1C1CCOCC1` [Example 54, 3-{[(3R)-1,3-dimethyl-2-oxo-4-(tetrahydro-2H-pyran-4-yl)-1,2,3,4-tetrahydropyrido[2,3-b]pyrazin-6-yl](methyl)-amino}-N,N-dimethyl-benzenesulphonamide] had an IC50 of 62 nM.

`CC(C)N1c2nc(Nc3cccc(S(=O)(=O)NCCN(C)C)c3)ccc2N(C)C(=O)[C@H]1C` [Example 55, N-[2-(dimethylamino)-ethyl]-3-{[(3R)-4-isopropyl-1,3-dimethyl-2-oxo-1,2,3,4-tetrahydro-pyrido[2,3-b]pyrazin-6-yl]amino}benzene-sulphonamide] yielded an IC50 of 149 nM.

Take `C[C@@H]1C(=O)N(C)c2ccc(Nc3ccc4c(c3)S(=O)(=O)NC4)nc2N1C1CCOCC1` [Example 56, (3R)-6-[(1,1-dioxido-2,3-dihydro-1,2-benzothiazol-6-yl)amino]-1,3-dimethyl-4-(tetrahydro-2H-pyran-4-yl)-3,4-dihydropyrido[2,3-b]pyrazin-2(1H)-one]: the half-maximal inhibitory concentration (IC50) was found to be 77 nM.

The compound `C[C@@H]1C(=O)N(C)c2ccc(Nc3cccc(S(=O)(=O)NC4CCN(C)CC4)c3)nc2N1C1CCN(C(=O)OC(C)(C)C)CC1` [Example 57, tert-butyl 4-[(3R)-1,3-dimethyl-6-({3-[(1-methylpiperidin-4-yl)sulphamoyl]phenyl}-amino)-2-oxo-2,3-dihydro-pyrido[2,3-b]pyrazin-4(1H)-yl]piperidine-1-carboxylate] came in with an IC50 of 177 nM.

`C[C@@H]1C(=O)N(C)c2ccc(Nc3cccc(S(N)(=O)=O)c3)nc2N1C1CCOCC1` [Example 58, 3-{[(3R)-1,3-dimethyl-2-oxo-4-(tetrahydro-2H-pyran-4-yl)-1,2,3,4-tetrahydropyrido[2,3-b]pyrazin-6-yl]amino}-benzenesulphonamide] had an IC50 of 103 nM.
